{"source": "patent US20240360177A1", "about": "“PEPTIDES WITH ANTIMICROBIAL ACTIVITIES” (priority 2021, published 2024)", "key": {"[1]": {"system": "Epidermophyton floccosum ATCC 52066", "assay": "microbe, parasite or virus in culture", "conditions": "ATCC52066, read-out: MIC Epidermophyton floccosum"}, "[2]": {"system": "C. parapsilosis", "assay": "microbe, parasite or virus in culture", "conditions": "Lodderomyces parapsilosis, ATCC22019, 24 h, read-out: MIC C. parapsilosis"}, "[3]": {"system": "Trichophyton rubrum ATCC MYA-4438", "assay": "microbe, parasite or virus in culture", "conditions": "read-out: MIC Trichophyton rubrum"}, "[4]": {"system": "Scedosporium spp.", "conditions": "N = 2 strains; 72 hrs"}, "[5]": {"system": "C. auris", "assay": "microbe, parasite or virus in culture", "conditions": "Candidozyma auris, 24 h, read-out: MIC C. auris"}, "[6]": {"system": "C. tropicalis", "assay": "microbe, parasite or virus in culture", "conditions": "Candida tropicalis, ATCC90874, 24 h, read-out: MIC C. tropicalis"}, "[7]": {"system": "C. krusei", "assay": "microbe, parasite or virus in culture", "conditions": "Pichia kudriavzevii, 24 h, read-out: MIC C. krusei"}, "[8]": {"system": "C. albicans", "assay": "microbe, parasite or virus in culture", "conditions": "Candida albicans, ATCC90028, 24 h, read-out: MIC C. albicans"}, "[9]": {"system": "Fusarium spp."}, "[10]": {"system": "C. neoformans", "assay": "microbe, parasite or virus in culture", "conditions": "Cryptococcus neoformans, ATCC90112, 72 h, read-out: MIC C. neoformans"}, "[11]": {"system": "Microsporum gypseum ATCC 14683", "assay": "microbe, parasite or virus in culture", "conditions": "Nannizzia gypsea, ATCC14683, read-out: MIC Microsporum gypseum"}, "[12]": {"system": "C. glabrata", "assay": "microbe, parasite or virus in culture", "conditions": "Nakaseomyces glabratus, ATCC90030, 24 h, read-out: MIC C. glabrata"}, "[13]": {"system": "C. gattii", "assay": "microbe, parasite or virus in culture", "conditions": "Cryptococcus gattii, 72 h, read-out: MIC C. gattii"}, "[14]": {"system": "Epidermophyton floccosum ATCC 52066"}, "[15]": {"system": "Trichophyton rubrum ATCC MYA-4438"}, "[16]": {"system": "C. auris", "conditions": "24 h"}, "[17]": {"system": "C. neoformans", "conditions": "72 h"}, "[18]": {"system": "Microsporum gypseum ATCC 14683"}, "[19]": {"system": "Escherichia coli ATCC 25922", "type": "cell-based"}, "[20]": {"system": "Salmonella senftenberg CDC 127", "type": "cell-based"}, "[21]": {"system": "C. krusei", "conditions": "24 h"}, "[22]": {"system": "Pseudomonas aeruginosa ATCC 27853", "type": "cell-based"}, "[23]": {"system": "C. parapsilosis", "conditions": "24 h"}, "[24]": {"system": "C. tropicalis", "conditions": "24 h"}, "[25]": {"system": "Mycobacterium smegmatis ATCC 700084", "type": "cell-based", "conditions": "ATCC 700084, 48 h"}, "[26]": {"system": "Staphylococcus aureus ATCC 29213", "type": "cell-based"}, "[27]": {"system": "C. glabrata", "conditions": "24 h"}, "[28]": {"system": "C. albicans", "conditions": "24 h"}, "[29]": {"system": "C. gattii", "conditions": "72 h"}, "[30]": {"system": "Enterococcus faecium ATCC 700221", "conditions": "CAMHB"}, "[31]": {"system": "Shigella sonnei MMX 10772", "assay": "Antibacterial broth microdilution MIC, Shigella sonnei", "type": "cell-based", "conditions": "CAMHB"}, "[32]": {"system": "Klebsiella pneumoniae ATCC 13883", "type": "cell-based"}}, "note": "Where two headings read alike, the source gives them in different places. Non-standard residues stand in square brackets, D forms with d. Residues, ends and D or L forms follow the SMILES beside them. Ahp = NCCCCCCC(=O)O; Ava = NCCCCC(=O)O", "data": [{"smiles": "CC[C@H](C)C[C@H](C)CCCCCCCCC(=O)N[C@H]1C[C@@H](O)[C@@H](NCCN)NC(=O)[C@@H]2[C@@H](O)CCN2C(=O)[C@H]([C@H](O)CCN)NC(=O)[C@H]([C@H](O)[C@@H](O)c2ccc(O)cc2)NC(=O)[C@@H]2C[C@@H](O)CN2C(=O)[C@H]([C@@H](C)O)NC1=O", "note": "[CAS, caspofungin]", "values": [{"measurement": "MIC", "setting": "[1]", "result": 0.06, "unit": "µg/mL"}, {"measurement": "MIC", "setting": "[2]", "result": 0.25, "unit": "µg/mL"}, {"measurement": "MIC", "setting": "[3]", "result": 2, "unit": "µg/mL"}, {"measurement": "MIC Range Scedosporium spp.", "setting": "[4]", "result": 32, "unit": "µg/mL"}, {"measurement": "MIC", "setting": "[5]", "result": 0.06, "unit": "µg/mL"}, {"measurement": "MIC", "setting": "[6]", "result": 0.03, "unit": "µg/mL"}, {"measurement": "MIC", "setting": "[7]", "result": 0.25, "unit": "µg/mL"}, {"measurement": "MIC", "setting": "[8]", "result": 0.03, "unit": "µg/mL"}, {"measurement": "MIC Range Fusarium spp.", "setting": "[9]; N = 3 strains, 48 hrs", "result": 32, "unit": "µg/mL"}, {"measurement": "MIC", "setting": "[10]", "result": 16, "unit": "µg/mL"}, {"measurement": "MIC", "setting": "[11]", "result": 0.12, "unit": "µg/mL"}, {"measurement": "MIC", "setting": "[12]", "result": 0.06, "unit": "µg/mL"}, {"measurement": "MIC", "setting": "[13]", "result": 16, "unit": "µg/mL"}]}, {"smiles": "N=C(N)NCCC[C@@H](N)C(=O)N[C@@H](CCCNC(=N)N)C(=O)N[C@H](CCCNC(=N)N)C(=O)NCCCCCCC(=O)N[C@H](CCCNC(=N)N)C(=O)N[C@@H](CCCNC(=N)N)C(=O)N[C@H](CCCNC(=N)N)C(=O)NCCCCC(=O)N[C@H](CCCNC(=N)N)C(=O)N[C@@H](CCCNC(=N)N)C(=O)N[C@H](CCCNC(=N)N)C(=O)N[C@@H](CCCNC(=N)N)C(=O)NCCCCC(=O)N[C@H](CCCNC(=N)N)C(=O)N[C@@H](CCCNC(=N)N)C(=O)N[C@H](CCCNC(=N)N)C(=O)N[C@@H](CCCNC(=N)N)C(=O)N[C@@H](CS)C(=O)O", "note": "[SEQ ID NO: 5, rRr-(Ahp)-rRr-(Ava)-rRrR-(Ava)-rRrR-Cys] (H-[dR]R[dR][Ahp][dR]R[dR][Ava][dR]R[dR]R[Ava][dR]R[dR]RC-OH)", "values": [{"measurement": "MIC Epidermophyton floccosum", "setting": "[14]", "result": 16, "unit": "µg/mL"}, {"measurement": "MIC Trichophyton rubrum", "setting": "[15]", "result": 2, "unit": "µg/mL"}, {"measurement": "MIC C. auris", "setting": "[16]", "result": 0.25, "unit": "µg/mL"}, {"measurement": "MIC C. neoformans", "setting": "[17]", "result": 1, "unit": "µg/mL"}, {"measurement": "MIC Microsporum gypseum", "setting": "[18]", "result": 64, "unit": "µg/mL"}, {"measurement": "MIC Escherichia coli", "setting": "[19]", "result": 16, "unit": "µg/mL"}, {"measurement": "MIC Salmonella senftenberg", "setting": "[20]", "result": 16, "unit": "µg/mL"}, {"measurement": "MIC C. krusei", "setting": "[21]", "result": 1, "unit": "µg/mL"}, {"measurement": "MIC Pseudomonas aeruginosa", "setting": "[22]", "result": 32, "unit": "µg/mL"}, {"measurement": "MIC C. parapsilosis", "setting": "[23]", "result": 0.25, "unit": "µg/mL"}, {"measurement": "MIC C. tropicalis", "setting": "[24]", "result": 0.25, "unit": "µg/mL"}, {"measurement": "MIC Mycobacterium smegmatis", "setting": "[25]", "result": 2, "unit": "µg/mL"}, {"measurement": "MIC Staphylococcus aureus", "setting": "[26]", "result": 8, "unit": "µg/mL"}, {"measurement": "MIC C. glabrata", "setting": "[27]", "result": 0.5, "unit": "µg/mL"}, {"measurement": "MIC C. albicans", "setting": "[28]", "result": 1, "unit": "µg/mL"}, {"measurement": "MIC C. gattii", "setting": "[29]", "result": 0.5, "unit": "µg/mL"}, {"measurement": "MIC Range Fusarium spp.", "setting": "[9]; 48 h", "result": "0.5 to 4", "unit": "µg/mL"}, {"measurement": "MIC Enterococcus faecium", "setting": "[30]", "result": 16, "unit": "µg/mL"}]}, {"smiles": "N=C(N)NCCC[C@H](NC(=O)[C@@H](CCCNC(=N)N)NC(=O)[C@H](CCCNC(=N)N)NC(=O)[C@@H](CCCNC(=N)N)NC(=O)CCCCNC(=O)[C@H](CCCNC(=N)N)NC(=O)[C@@H](CCCNC(=N)N)NC(=O)[C@H](CCCNC(=N)N)NC(=O)[C@@H](CCCNC(=N)N)NC(=O)CCCCNC(=O)[C@@H](CCCNC(=N)N)NC(=O)[C@H](CCCNC(=N)N)NC(=O)[C@@H](CCCNC(=N)N)NC(=O)CCCCCCNC(=O)[C@@H](CCCNC(=N)N)NC(=O)[C@H](CCCNC(=N)N)NC(=O)[C@@H](CCCNC(=N)N)NC(=O)[C@@H](N)CS)C(=O)O", "note": "[SEQ ID NO: 6, Cys-rRr-(Ahp)-rRr-(Ava)-rRrR-(Ava)-rRrR] (H-C[dR]R[dR][Ahp][dR]R[dR][Ava][dR]R[dR]R[Ava][dR]R[dR]R-OH)", "values": [{"measurement": "MIC C. auris", "setting": "[16]", "result": 4, "unit": "µg/mL"}, {"measurement": "MIC Escherichia coli", "setting": "[19]", "result": 16, "unit": "µg/mL"}, {"measurement": "MIC Salmonella senftenberg", "setting": "[20]", "result": 16, "unit": "µg/mL"}, {"measurement": "MIC Shigella sonnei", "setting": "[31]", "result": 16, "unit": "µg/mL"}, {"measurement": "MIC C. krusei", "setting": "[21]", "result": 8, "unit": "µg/mL"}, {"measurement": "MIC Pseudomonas aeruginosa", "setting": "[22]", "result": 16, "unit": "µg/mL"}, {"measurement": "MIC C. parapsilosis", "setting": "[23]", "result": 2, "unit": "µg/mL"}, {"measurement": "MIC C. tropicalis", "setting": "[24]", "result": 1, "unit": "µg/mL"}, {"measurement": "MIC Klebsiella pneumoniae", "setting": "[32]", "result": 16, "unit": "µg/mL"}, {"measurement": "MIC Mycobacterium smegmatis", "setting": "[25]", "result": 1, "unit": "µg/mL"}, {"measurement": "MIC Staphylococcus aureus", "setting": "[26]", "result": 8, "unit": "µg/mL"}, {"measurement": "MIC C. glabrata", "setting": "[27]", "result": 0.5, "unit": "µg/mL"}, {"measurement": "MIC C. albicans", "setting": "[28]", "result": 8, "unit": "µg/mL"}, {"measurement": "MIC C. gattii", "setting": "[29]", "result": 1, "unit": "µg/mL"}, {"measurement": "MIC Range Fusarium spp.", "setting": "[9]; 48 h", "result": "0.25 to 0.5", "unit": "µg/mL"}, {"measurement": "MIC Enterococcus faecium", "setting": "[30]", "result": 16, "unit": "µg/mL"}]}]}
